Four molecules from patent publication US8871815B2, “Therapeutic compounds” (Signature Therapeutics, Inc., priority 2007, dated 2014) can be followed below.

Data set [1] deals with Beagle dogs.
Data set [2] concerns male Sprague-Dawley rats. As to the kind of experiment: Anesthetic effects in rats, bolus IV, Loss of Righting Reflex (LORR). Type of data set: in vivo, rat. The conditions noted are these: 49 mg/kg bolus IV.
Assay in data set [3]: as above
Type of data set: in vivo, rat. The note with it: male, Sprague-Dawley, rat, in vivo; bolus IV, rats; read-out: MTD (maximum tolerated dose). Here is the method: (§1) Also measured was minimum dose to achieve LORR and maximum tolerated dose (MTD).
(§2) The ranges of doses studied were 1.9, 2.3, 3.0, 7.0, 13.7, 14.0 and 15.2 mg/kg for Compound 1 and 3.5, 4.0, 7.0 and 14.0 mg/kg for […].

The test system of data set [4] is male Sprague-Dawley rats. The description is as above. The class given is in vivo, rat. Here is the method:
as §1, §2

For data set [5], the system named is Beagle dogs. As to the kind of experiment: Hemodynamic effects (blood pressure) in beagle dogs, bolus IV. Type of data set: in vivo, dog. The conditions noted are these: 4 min after administration. How it is done:
The study was a crossover design. […] The MTD was defined as the dose that reduced mean arterial blood pressure (MAP) by 50% or to less than 50 millimeters of mercury (mmHg or mm Hg). All animals received supplemental oxygen and, if needed, ventilatory support after 4 min of apnea.
Hemodynamic data, such as mean arterial pressure (MAP), were recorded at baseline, 1, 2, 4, 8, 15, 20 and 30 min. Compound 1 was administered at 5, 10, 15 and 30 mg/kg to 3, 6, 6 and 3 dogs respectively. […] Data were analyzed with a 2-way ANOVA followed by t-test with Bonferroni correction for multiple comparisons.

In another data set the test system is rats. The data set is described as follows: Separate rat study, bolus IV, 1% in cremaphor, sleep time. Type of data set: in vivo. The note with it: for Sleep Time (duration of anesthesia): 7 mg/kg bolus IV.
The subject of a further data set is ferrets. As to the kind of experiment: Anti-emetic activity in ferrets (morphine sulfate induced emesis). The note with it: 6 ferrets. How it is done:
Male descented ferrets weighing 1.0-1.5 kg with vascular access ports in the jugular vein were housed on a 12/12-hour light/dark cycle under controlled temperature, with food and water provided ad libitum. On each study day, food was presented to ferrets one hour prior to dosing. Immediately prior to dosing, food and water were removed. A 1% Compound 1 formulation, prepared as described in Example 5 and formulated in accordance with Example 4, or […] was administered by IV infusion to the ferrets; see Wynn R L et al, 1993, Eur J Pharmacol 241, 42 re […] administration in ferrets. After administration of Compound 1 or […], animals were placed in clean, transparent cages (with lids) and left unrestrained for a 45-min observation period by an observer blinded to the specific treatment administered.
Episodes of retching and/or vomiting were considered separate episodes when the interval between retches and/or vomits exceeded 5 sec.
After termination of the infusion, 0.5 mg/kg morphine sulfate was administered subcutaneously and the ferrets were monitored for 45 min as described above. Six additional ferrets were administered subcutaneously 0.5 mg/kg morphine sulfate only.

In data set [6] the target is T1, phosphodiesterase 2 (PDE2) (Homo sapiens, UniProt O00408).
T1 construct: Cerep, Inc
T1 sequence (O00408 whole entry): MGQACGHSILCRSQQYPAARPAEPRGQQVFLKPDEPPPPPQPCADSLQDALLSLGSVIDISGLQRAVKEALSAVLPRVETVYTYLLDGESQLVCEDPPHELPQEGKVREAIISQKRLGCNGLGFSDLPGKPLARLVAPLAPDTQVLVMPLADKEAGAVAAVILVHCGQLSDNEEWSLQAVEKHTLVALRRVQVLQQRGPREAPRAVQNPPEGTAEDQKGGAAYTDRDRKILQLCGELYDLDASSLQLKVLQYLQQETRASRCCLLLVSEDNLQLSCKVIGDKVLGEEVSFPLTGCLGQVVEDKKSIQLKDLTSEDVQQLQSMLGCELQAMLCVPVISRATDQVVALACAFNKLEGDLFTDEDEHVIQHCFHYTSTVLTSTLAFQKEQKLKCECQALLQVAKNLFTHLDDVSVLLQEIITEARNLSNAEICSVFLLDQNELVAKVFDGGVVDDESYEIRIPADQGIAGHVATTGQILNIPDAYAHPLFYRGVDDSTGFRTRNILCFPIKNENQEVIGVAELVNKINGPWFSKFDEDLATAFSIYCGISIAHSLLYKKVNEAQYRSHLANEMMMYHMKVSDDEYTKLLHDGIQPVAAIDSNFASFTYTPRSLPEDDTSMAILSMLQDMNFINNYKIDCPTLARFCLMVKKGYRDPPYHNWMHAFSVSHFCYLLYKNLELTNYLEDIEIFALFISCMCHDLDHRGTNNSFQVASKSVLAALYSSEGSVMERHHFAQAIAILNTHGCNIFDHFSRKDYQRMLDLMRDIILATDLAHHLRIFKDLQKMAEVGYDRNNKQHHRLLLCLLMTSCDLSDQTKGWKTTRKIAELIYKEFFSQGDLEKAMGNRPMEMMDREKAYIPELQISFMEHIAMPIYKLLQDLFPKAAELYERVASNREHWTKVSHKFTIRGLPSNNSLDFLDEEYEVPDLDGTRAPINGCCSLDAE
As to the kind of experiment: Cerep Diversity Profile: enzymes, PDE2. Type of data set: biochemical. The note with it: tested at 10 μM; read-out: inhibition of control binding, PDE2.

The next data set concerns mongrel dogs. As to the kind of experiment: Anesthetic and hemodynamic effects in chronically instrumented mongrel dogs, total intravenous anesthesia. The class given is in vivo, dog. The conditions noted are these: IV bolus then stepwise IV infusions 0.25-2.0 mg/kg/min. Here is the method:
Assessments included hemodynamic performance parameters such as blood pressure, heart rate, and cardiac output as well as clinical chemistry parameters and EEG analysis.
General anesthesia was induced in the dogs by IV administration of 7 mg/kg […], and the dogs were tracheally intubated and mechanically ventilated. General anesthesia was maintained using 2.2% end-tidal sevoflurane in oxygen. A thoracotomy was performed at the fifth left intercostal space, and heparin-filled catheters were placed in the proximal descending thoracic aorta (P50 pressure transducer Gould, Oxnard, Calif.), and in the right and left atria to provide IV access. An ultrasonic transit-time flow probe (T108, Transonic Systems, Ithaca, N.Y.) was placed around the ascending thoracic aorta. A […] Doppler flow probe (Model HDP-20-3.5, Triton Surgical Technologies, San Diego, Calif.) was placed around the left anterior descending coronary artery. Six MHz sonomicrometer crystals (Hartley, Houston, Tex.) were implanted in the subendocardium. A high fidelity micromanometer (P7, Konigsberg Instruments, Pasadena, Calif.) was inserted into the left ventricle. […]
The dogs were fasted overnight. […] EEG was recorded continuously during the experiment. Arterial blood gas and chemistry measures included pH, pO2, sO2, pCO2, tCO2, carbonate, potassium, sodium, and base excess, and were measured immediately following blood draws using a blood gas and chemistry analyzer (ABL-505, Radiometer, Copenhagen). […] Following stabilization, baseline measurements of EEG, hemodynamics, ECG, and blood gases were recorded. Blood samples were drawn for PK and clinical chemistry, and pressure volume loops were generated and data recorded.
Following induction, the dogs were tracheally intubated, and mechanically ventilated using 50% oxygen in nitrogen throughout the subsequent drug infusion and recovery periods. […] MAP was monitored continuously, and dosing was discontinued immediately if MAP decreased below 50 mmHg at any time or if the heart rate increased over 200 beats per minute. […]

For data set [7], the system named is pigs. The data set is described as follows: in vivo. The note with it: pig, in vivo, iv. Here is the method:
(§3) Experiments were performed on commercial farm-bred swine of either sex (mean weight 33.6 kg). Anesthesia was induced with isoflurane. Intravascular access was obtained from an ear vein. Each pig was intubated and mechanically ventilated. Tissue oxygenation was monitored using continuous pulse oximetry placed on the tongue. Ventilation was monitored using an inspired/expired gas analyzer that measured oxygen, carbon dioxide, and potent inhalation agent concentrations. Ventilator settings were adjusted as needed to maintain steady state.
(§4) ECG was monitored throughout the study. Arterial blood pressure was monitored through the cannulated left femoral artery. MAP, systolic and diastolic arterial pressures and heart rate were collected every 5 seconds. An internal jugular vein was cannulated with a pulmonary artery catheter for thermodilution estimates of cardiac output and blood temperature. Body temperature was maintained at 37° C. Instrumentation for EEG monitoring was accomplished using an adhesive electrode array over the fronto-occipital regions (Aspect Medical. Norwood, Mass., USA).
(§5) Metabolic and hemodynamic parameters for each group were compared at multiple time points using an unpaired two-tailed Student t test. To account for multiple comparisons and maintain the probability of a type I error below 0.05, P values less than 0.025 were considered significant.

The next data set can be described thus: in vivo. The note with it: both, pig, in vivo, iv. How it is done:
as §3, §4, §5

Data set [8] is described as follows: Aqueous phase concentration in lipid emulsion (ultrafiltration, LC/MS/MS). The class given is physicochemical. The conditions noted are these: 1% lipid emulsion formulation. How it is done: The concentration of Compound 1 in the aqueous phase (aqueous phase concentration) of a lipid emulsion formulation was determined.
A one percent (1%) Compound 1 formulation was formulated in accordance with Example 4, Compound 1 being prepared as described in Example 5.

Data set [9] concerns pigs. The data set is described as follows: Hemodynamic effects, arterial blood gas and serum chemistry in pigs, IV infusion. The class given is in vivo, pig. The note with it: IV infusion, pigs (Compound 1 0.384, propofol 0.750 mg/kg/min). How it is done:
Anesthesia was induced with isoflurane. Intravascular access was obtained from an ear vein. Each pig was intubated and mechanically ventilated.
ECG was monitored throughout the study. […] Body temperature was maintained at 37° C.
Arterial blood gas samples from pigs infused with Compound 1 were taken and analyzed for blood gas and serum chemistry values; mean values are reported in Table 4.

Data set [10] relates to alpha2, NMDA, PCP, benzodiazepine or opioid receptors. As to the kind of experiment: Cerep Diversity Profile: other receptors. Type of data set: binding. The conditions noted are these: tested at 10 μM.
Setting [11] is: morphine sulfate 0.5 mg/kg subcutaneously alone, 45 min observation.
The mark [12] stands for this setting: 15 min IV infusion at 1 mg/kg/min, then 0.5 mg/kg morphine sulfate sc, 45 min.

Where two headings read alike, the source gives them in different places. Marks after values point to notes of the source that are not given here.

By MTD is commonly meant the largest dose that counted as tolerated. What is called inhibition is the drop in the measured response relative to a control, in per cent. Broadly, the AUC is the area under the concentration-time curve, a measure of exposure. High values mean high exposure, low ones low exposure.

Take `CC[C@H](C)c1cccc([C@@H](C)CC)c1O` (single isomer, unassigned) [(S,S)]: the “duration of anesthesia (sleep time)” value with Beagle dogs [1] (5 mg/kg bolus IV, dogs) was determined as 8 min; in the data set with Beagle dogs [1] (10 mg/kg bolus IV, dogs), 24 min; in the data set on Beagle dogs [1] (15 mg/kg bolus IV, dogs), 50 min; in the data set on Beagle dogs [1] (30 mg/kg bolus IV, dogs) it was 50 min. For the same molecule, the deaths result in the data set with male Sprague-Dawley rats [2] is reported as “One of six rats died”. For the same molecule, the MTD in data set [3] came to 42 mg/kg. For the same molecule, the “HD50 (dose required to cause 50% of the rats to lose righting reflex)” value with male Sprague-Dawley rats [4] (bolus IV, rats) is given as 4 mg/kg. Also, the “HD7min (dose required to produce 7 minutes of anesthesia)” value in the data set with male Sprague-Dawley rats [4] (bolus IV, rats) is reported as 5.2 mg/kg. In the data set with male Sprague-Dawley rats [4] (bolus IV, rats), the “TI (therapeutic index, ratio of MTD to HD7 min)” value is recorded as 8.1. Besides, the “MAP % change from baseline” value in the data set on Beagle dogs [5] (10 mg/kg bolus IV) is recorded as “+7%”; in the data set with Beagle dogs [5] (15 mg/kg bolus IV), “+5%”; with Beagle dogs [5] (30 mg/kg bolus IV), 0%. Also, the “Sleep Time (duration of anesthesia)” value in the data set with rats (rats) stood at 6.3 min.

Regarding `CC[C@@H](C)c1cccc([C@@H](C)CC)c1O` [(meso), (meso)-2,6-di-sec-butylphenol], the “duration of anesthesia (sleep time)” value in the data set on Beagle dogs [1] (5 mg/kg bolus IV, dogs) was 25 min; in the data set on Beagle dogs [1] (10 mg/kg bolus IV, dogs), 36 min; in the data set on Beagle dogs [1] (15 mg/kg bolus IV, dogs) it was 55 min; in the data set on Beagle dogs [1] (30 mg/kg bolus IV, dogs), 58 min. In addition, the “quality of anesthesia (smoothness of induction, muscle tone, involuntary motion)” value in the data set with Beagle dogs [1] (bolus IV, dogs) was “inferior”. Further, the entries for the “MAP % change from baseline” value in the data set on Beagle dogs [5] (10 mg/kg bolus IV), with Beagle dogs [5] (15 mg/kg bolus IV) and in the data set on Beagle dogs [5] (30 mg/kg bolus IV) were “+5%”, “+15%” and −16%, respectively. The “Sleep Time (duration of anesthesia)” value in the data set on rats (rats) stood at 12.7 min. Moreover, the deaths entry in the data set on rats (21 mg/kg, rats) was “One of 6 rats”. For the same molecule, the duration of anesthesia in the data set with rats (21 mg/kg, remaining 5 rats) worked out at 34 min.

In the data set with ferrets (setting [11]), `CN1CC[C@]23c4c5ccc(O)c4O[C@H]2[C@@H](O)C=C[C@H]3[C@H]1C5.O=S(=O)(O)O` [Morphine sulfate] returned an episodes of vomiting of 15 and a retches of 157.

With `CC(C)c1cccc(C(C)C)c1O` [Propofol, 2,6-diisopropylphenol, reference compound], the inhibition at 10 µM in data set [6] was greater than 20%. Further, in the data set on Beagle dogs [1] (dog, in vivo, iv), the “dogs reaching the MTD (MAP reduced by 50% or to less than 50 mmHg)” value is “Two of 3 dogs”. Moreover, the “Cardiac output versus baseline” value in the data set on mongrel dogs is “significantly reduced from baseline”. For the same molecule, the “IV infusion time producing maximal suppression of BIS” value in the data set on pigs [7] was determined as 9.4 ± 1.9 min. In the data set “in vivo”, this molecule had an AUC of 1810 ng·h/mL. In addition, in data set [8], the aqueous phase concentration is 6.28 ± 0.41 µg/mL. Moreover, the “lowest HR measured” value with pigs [9] amounted to 88±6 bpm. Moreover, in the data set with male Sprague-Dawley rats [4] (3.5 mg/kg bolus IV, 6 rats), the LORR produced entry is given as “no LORR in 4 of 6 rats”. Also, in the data set on male Sprague-Dawley rats [4] (bolus IV, rats), the “HD50 (dose required to cause 50% of the rats to lose righting reflex)” value worked out at 3.8 mg/kg and the “HD7min (dose required to produce 7 minutes of anesthesia)” value is on record as 7.0 mg/kg. The “effects at alpha2, NMDA, PCP, benzodiazepine or opioid receptors” value in data set [10] is “No significant effects”. In the data set on ferrets (setting [12]), the retches amounted to 47 and the vomits came to 3. The “MAP % change from baseline” value with Beagle dogs [5] (10 mg/kg bolus IV) is on record as −22%. Also, the “MAP % change from baseline” value in the data set on Beagle dogs [5] (15 mg/kg bolus IV) is recorded as −32%. Besides, the “MAP % change from baseline” value in the data set on Beagle dogs [5] (30 mg/kg bolus IV) is listed as −66%*. In addition, in the data set on rats (rats), the “Sleep Time (duration of anesthesia)” value was 7.1 min.
